Results on 10 molecules are retold here after US11773071B2, “Benzothiazepine compounds and their use as bile acid modulators” (Albireo AB, priority 2019, dated 2023).

A short description of data set [1]: Bidirectional permeability assay (Caco-2 cells). As to conditions: human, Caco-2, absorptive direction (A2B), 10 μM in FaSSIF buffer. Type of data set: in vitro ADME. The procedure: Bidirectional Permeability Assay (Caco-2 Cells)
Caco-2 cells (Evotec) were seeded at a density of 70,000 cells/well in Millicell® 24-well cell culture insert plates and maintained in an incubator (37° C., 5% CO2, 95% RH) for 21 days with media change on alternate days.
Stock solutions (10 mM) of the test compounds, atenolol (low permeability marker), propranolol (high permeability marker) and digoxin (substrate for P-gp transport pathway) were prepared in dimethylsulfoxide (DMSO). An intermediate stock solution (1 mM) was prepared by diluting 10 μL of 10 mM master stock solution with 90 μL of neat DMSO. A working stock solution (10 μM) was prepared by diluting 50 μL of 1 mM with 4950 μL of FaSSIF buffer. Post addition of compounds to the FaSSIF, samples were subjected to sonication for 2 hours, and centrifuged at 4000 RPM for 30 minutes at 37° C. The 4 mL of resultant supernatant was directly used in the assay. The final DMSO concentration in the transport experiments was 1%.
On the day of assay, Caco-2 monolayers were washed twice with transport buffer (HBSS, pH 7.4) and pre-incubated for 30 min (37° C., 5% CO2, 95% RH) in an incubator. The electrical resistance of the monolayers was measured with a Millicell®—ERS system. Monolayers with trans-epithelial electrical resistance (TEER) values greater than 350 ohm·cm^2 were selected for the assay.
The assay was conducted in absorptive direction (A2B) and secretory (B2A) directions. Transport experiments were initiated by addition of transport assay buffer (FaSSIF buffer prepared in HBSS) consisting of compounds to the donor compartment (apical chamber A-B; basolateral chamber B-A) in duplicate (n=2) wells. Drug free HBSS buffer (pH 7.4) containing 1% bovine serum albumin (BSA) was introduced to the receiver (A-B-basolateral; B-A-Apical) compartments. The volumes of apical and basolateral compartments were 0.4 and 0.8 mL, respectively. After adding dosing solution, plates were incubated in an incubator for 120 minutes at 37° C. After 120 minutes, donor and receiver samples were collected and matrix matched (1:1, 30 μL study sample+30 μL blank buffer) with the opposite buffer. Dosing samples matrix matched (1:1, 30 μL study sample+30 μL blank buffer) with the opposite buffer. Samples were processed by adding acetonitrile containing internal standard (60 μL study sample+200 μL acetonitrile containing internal standard—Tolbutamide, 500 ng/mL). Samples were vortexed and centrifuged at 4000 rpm for 10 minutes. The obtained supernatant (100 μL) was diluted with 100 μL of water and transferred to fresh 96 well plates. The concentration of compounds in the samples was analyzed by liquid chromatography tandem mass spectrometry (LC-MS/MS) method using discovery grade bio-analytical method, as applicable.
The mean apparent permeability (Papp,×10^−6 cm/sec) of the test compounds, atenolol, propranolol and digoxin were calculated as follows:
[formula] where dq/dt=rate of transport (rate of transport of compound in the receiver compartment), C0=initial concentration in the donor compartment, A=surface area of the effective filter membrane.

Data set [2] deals with T1, Human IBAT (Homo sapiens, UniProt Q12908).
T1 construct: expressed in transfected cells; Puromycin-selected
T1 sequence (Q12908 1-348): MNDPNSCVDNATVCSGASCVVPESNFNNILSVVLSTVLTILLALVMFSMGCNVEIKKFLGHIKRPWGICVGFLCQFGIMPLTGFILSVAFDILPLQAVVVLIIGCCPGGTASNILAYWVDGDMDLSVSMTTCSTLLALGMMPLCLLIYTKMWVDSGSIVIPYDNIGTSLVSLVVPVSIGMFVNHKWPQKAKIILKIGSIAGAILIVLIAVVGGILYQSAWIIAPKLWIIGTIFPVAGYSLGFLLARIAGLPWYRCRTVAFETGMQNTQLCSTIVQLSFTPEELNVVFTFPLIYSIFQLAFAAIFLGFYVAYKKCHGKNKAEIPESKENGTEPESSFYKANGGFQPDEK
Briefly: IBAT (h/m) assay, human IBAT-overexpressing cells, 3H-taurocholic acid uptake. As to conditions: 0.25 μM 3H-taurocholic acid and 5 μM cold taurocholic acid, 20 minutes, read-out: hIBAT IC50. The data set is classed as cell-based. On the procedure: IBAT (h/m) Assay Protocol
10,000 cells (Human or Mouse IBAT-overexpressing cells) were seeded in 96-wells plate (Corning CLS3809) in 200 μL MEM-alpha medium (Gibco 12571-063) supplemented with 10% FBS (Gibco 10438026) containing Puromycin (Gibco A1113803) (10 μg/mL) and incubated at 37° C. in 5% CO2 for 48 hours. After incubation, media was decanted from the wells and cells were washed two times with 300 μL of basal MEM-alpha medium (FBS-free). After decanting basal MEM-alpha medium each time, plates were tapped against paper towel to ensure maximum removal of residual media. Test inhibitor dilutions (highest test concentration being 10 μM, 3-fold serial dilution, 10 points) prepared in DMSO (Sigma D2650) were added in incubation mix (maintaining 0.2% final DMSO concentration) containing 0.25 μM 3H-taurocholic acid (ARC ART-1368) and 5 μM of cold taurocholic acid (Sigma T4009). 50 μL of incubation mix containing test inhibitors was then added to the wells (in duplicate) and the plates were incubated for 20 minutes in a CO2 incubator at 37° C. After incubation, the reaction was stopped by keeping the plates on ice water mix for 2-3 minutes and then the incubation mix was aspirated completely from the wells. The wells were washed two times with 250 μL of chilled unlabelled 1 mM taurocholic acid dissolved in HEPES (Gibco 15630080)-buffered (10 mM) HBSS (Gibco 14175079) (pH 7.4). The plates were tapped against a paper towel after every wash to ensure maximum removal of blocking buffer.
100 μL of MicroScint-20 (PerkinElmer 6013621) was added to the wells and kept overnight at room temperature before reading the plates in TopCount NXT™ Microplate Scintillation and Luminescence Counter from PerkinElmer under 3H Test protocol (set at 120 seconds reading time per well).
(§1) Preparation of Test Compound Dilutions
(§2) All test compounds were provided in powder form at room temperature. 10 mM DMSO stocks of the test compounds were prepared, aliquoted and stored at −20° C. From the 10 mM DMSO stock of the compounds, a 3-fold serial dilution in DMSO was prepared to get a total of 10 dilutions of the test compounds. 0.5 μL of this dilution in DMSO was added to 250 μL of FBS-free basal media containing 3H-taurocholic acid and cold taurocholic acid to prepare the incubation mixture.

The target in data set [3] is T2, Human LBAT (Homo sapiens, UniProt Q14973).
T2 construct: expressed in transfected cells; Geneticin-selected
T2 sequence (Q14973 1-349): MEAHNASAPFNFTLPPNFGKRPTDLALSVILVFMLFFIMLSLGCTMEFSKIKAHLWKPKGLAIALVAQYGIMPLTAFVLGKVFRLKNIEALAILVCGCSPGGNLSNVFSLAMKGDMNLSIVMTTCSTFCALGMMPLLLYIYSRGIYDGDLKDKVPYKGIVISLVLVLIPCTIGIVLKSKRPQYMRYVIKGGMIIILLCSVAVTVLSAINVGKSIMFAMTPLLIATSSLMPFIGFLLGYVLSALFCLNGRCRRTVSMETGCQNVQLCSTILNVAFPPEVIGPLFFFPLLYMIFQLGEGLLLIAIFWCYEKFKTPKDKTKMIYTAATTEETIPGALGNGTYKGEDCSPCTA
Briefly: LBAT (h/m) assay, human LBAT-overexpressing cells, 3H-taurocholic acid uptake. The following applies: 0.3 μM 3H-taurocholic acid and 7.5 μM cold taurocholic acid, 20 minutes, read-out: hLBAT IC50. Type of data set: cell-based. On the procedure: LBAT (h/m) Assay Protocol
20,000 cells (Human or Mouse LBAT-overexpressing cells) were seeded in 96-wells plate (Corning CLS3809) in 100 μL MEM-alpha medium (Gibco 12571-063) supplemented with 10% FBS (Gibco 10438026) containing Geneticin (Gibco 10131-027) (1 mg/mL) and incubated at 37° C. in 5% CO2 for 24 hours. After incubation, media was decanted from the wells and cells were washed two times with 300 μL of basal MEM-alpha medium (FBS-free). After decanting basal MEM-alpha medium each time, plates were tapped against paper towel to ensure maximum removal of residual media.
For human LBAT, incubation mix was prepared by adding test inhibitor dilutions (3-fold serial dilution in DMSO (Sigma D2650), 10 points) in MEM-alpha (without FBS) containing 0.3 μM 3H-taurocholic acid (ARC ART-1368) and 7.5 μM cold taurocholic acid (Sigma T4009) (maintaining 0.2% final DMSO concentration). For mouse LBAT, incubation mix was prepared by adding test inhibitor dilutions (3-fold serial dilution in DMSO, 10 points) in MEM-alpha (without FBS) containing 0.3 μM 3H-taurocholic acid and 25 μM cold taurocholic acid maintaining 0.2% final DMSO concentration). 50 μL of incubation mix containing test inhibitors was then added to the wells (in duplicate) and the plates were incubated for 20 minutes in a CO2 incubator at 37° C. After incubation, the reaction was stopped by keeping the plates on ice water mix for 2-3 minutes and then the incubation mix was aspirated completely from the wells. The wells were washed two times with 250 μL of chilled unlabelled 1 mM taurocholic acid dissolved in HEPES (Gibco 15630080)-buffered (10 mM) HBSS (Gibco 14175079) (pH 7.4). The plates were tapped against a paper towel after every wash to ensure maximum removal of blocking buffer. 100 μL of MicroScint-20 (PerkinElmer 6013621) was added to the wells and kept overnight at room temperature before reading the plates in TopCount NXT™ Microplate Scintillation and Luminescence Counter from PerkinElmer under 3H Test protocol (set at 120 seconds reading time per well, with normal plate orientation).
as §1, §2

`CCCCC1(CC)CN(c2ccccc2)c2cc(N(C)C)c(OCCC(=O)O)cc2S(=O)(=O)C1` (racemic) [Example 16, 3-((3-Butyl-7-(dimethylamino)-3-ethyl-1,1-dioxido-5-phenyl-2,3,4,5-tetrahydro-1,5-benzothiazepin-8-yl)oxy)propanoic acid] yielded an apical-to-basolateral permeability (Papp A→B) at 120 min, 10 μM in data set [1] of 17.6 ×10⁻⁶ cm/s. Besides, the IC50 in data set [2] turned out to be 3 nM.
Turning to `CCCCC1(C)CN(c2ccccc2)c2cc(SC)c(OCCC(=O)O)cc2S(=O)(=O)C1` (single isomer, unassigned) [Example 23, 3-((3-butyl-3-methyl-7-(methylthio)-1,1-dioxido-5-phenyl-2,3,4,5-tetrahydro-1,5-benzothiazepin-8-yl)oxy)propanoic acid], the figures for the 50% inhibitory concentration (IC50) in data set [3] and in data set [2] were 182 nM and 334 nM, respectively.
Turning to `CCCCC1(C)CN(c2ccccc2)c2cc(SC)c(OC[C@H](O)C(=O)O)cc2S(=O)(=O)C1` (single isomer, unassigned) [Example 32, 3-((3-butyl-3-methyl-7-(methylthio)-1,1-dioxido-5-phenyl-2,3,4,5-tetrahydro-1,5-benzothiazepin-8-yl)oxy)-2-hydroxypropanoic acid], the figures for the IC50 in data set [3] and in data set [2] were 2260 nM and 8 nM, respectively.
Turning to `CCCCC1(CCCC)CN(c2ccccc2)c2cc(Cl)c(OCCC(=O)O)cc2S(=O)(=O)C1` [Example 8, 3-((3,3-Dibutyl-7-chloro-1,1-dioxido-5-phenyl-2,3,4,5-tetrahydro-1,5-benzothiazepin-8-yl)oxy)propanoic acid], the 50% inhibitory concentration (IC50) in data set [3] came out at 376 nM; in data set [2], 74 nM.
As for `CCCCC1(CCCC)CN(c2ccc(F)c(F)c2)c2cc(SC)c(OCCC(=O)O)cc2S(=O)(=O)C1` [Example 25, 3-((3,3-dibutyl-5-(3,4-difluorophenyl)-7-(methylthio)-1,1-dioxido-2,3,4,5-tetrahydro-1,5-benzothiazepin-8-yl)oxy)propanoic acid], the IC50 in data set [3] worked out at 922 nM; in data set [2], 18 nM.
Regarding `CCCCC1(CCCC)CN(c2ccc(F)cc2)c2cc(SC)c(OCCC(=O)O)cc2S(=O)(=O)C1` [Example 26, 3-((3,3-dibutyl-5-(4-fluorophenyl)-7-(methylthio)-1,1-dioxido-2,3,4,5-tetrahydro-1,5-benzothiazepin-8-yl)oxy)propanoic acid], the half-maximal inhibitory concentration (IC50) was 1540 nM in data set [3] and 10 nM in data set [2].
With `CCCCC1(C)CN(c2ccccc2)c2cc(SC)c(OCC(O)C(=O)O)cc2S(=O)(=O)C1` (centres unmarked) [Example 31, 3-((3-butyl-3-methyl-7-(methylthio)-1,1-dioxido-5-phenyl-2,3,4,5-tetrahydro-1,5-benzothiazepin-8-yl)oxy)-2-hydroxypropanoic acid], the values for the concentration for half-maximal inhibition (IC50) in data set [3] and in data set [2] were 359 nM and 10 nM, respectively.
Turning to `CCCCC1(CC)CN(c2ccccc2)c2cc(SC)c(OCC(O)C(=O)O)cc2S(=O)(=O)C1` (centres unmarked) [Example 39, 3-((3-butyl-3-ethyl-7-(methylthio)-1,1-dioxido-5-phenyl-2,3,4,5-tetrahydro-1,5-benzothiazepin-8-yl)oxy)-2-hydroxypropanoic acid], the concentration for half-maximal inhibition (IC50) was 613 nM in data set [3] and 4 nM in data set [2].
For `CCCCC1(CC)CN(c2ccc(F)cc2)c2cc(SC)c(OCC(O)C(=O)O)cc2S(=O)(=O)C1` (centres unmarked) [Example 41, 3-((3-Butyl-3-ethyl-5-(4-fluorophenyl)-7-(methylthio)-1,1-dioxido-2,3,4,5-tetrahydro-1,5-benzothiazepin-8-yl)oxy)-2-hydroxypropanoic acid], the half-inhibitory concentration (IC50) in data set [3] is 495 nM; in data set [2], 3 nM.
`CCCCC1(CCCC)CN(c2ccccc2)c2cc(OC)c(OCCC(=O)O)cc2S(=O)(=O)C1` [Example 45, 3-((3,3-Dibutyl-7-methoxy-1,1-dioxido-5-phenyl-2,3,4,5-tetrahydro-1,5-benzothiazepin-8-yl)oxy)propanoic acid]: the IC50 was > 6670 nM in data set [3] and 11 nM in data set [2].
